# Measured values taken from patent US20100152302A1, “NOVEL CRYSTALLINE FORMS OF ATOVAQUONE” (HETERO DRUGS LIMITED, priority 2007, published 2010).
# Several values for one entry are separate records, joined by “and”; a condition that tells them apart may be missing. Equal values may be shown once.
# Columns and labels:
# [1] = Specific surface area by B.E.T. nitrogen absorption analysis; assay type: physicochemical; conditions: isolated crystalline solid of the example, after drying or spray drying
# Excerpt: Specific surface area is defined in units of square meters per gram (m^2/g). It is usually measured by nitrogen absorption analysis. In this analysis, nitrogen is absorbed on the surface of the substance. The amount of the absorbed nitrogen (as measured during the absorption or the subsequent desorption process) is related to the surface area via a formula known as the B.E.T. formula.
# [2] = cited from earlier work
structure (smiles),measurement,setting,value
"O=C1C(O)=C([C@H]2CC[C@H](c3ccc(Cl)cc3)CC2)C(=O)c2ccccc21 [atovaquone Form I, trans-2-[4-(4-chlorophenyl)cyclohexyl]-3-hydroxy-1,4-naphthoquinone]",Specific Surface Area,[1],0.54 m^2/g
"O=C1C(O)=C([C@H]2CC[C@H](c3ccc(Cl)cc3)CC2)C(=O)c2ccccc21 [Atovaquone, trans-2-[4-(4-chlorophenyl)cyclohexyl]-3-hydroxy-1,4-naphthoquinone]",solubility in chloroform,[2]; chloroform,soluble
same,solubility in water,[2]; water,practically insoluble
"O=C1C(O)=C([C@H]2CC[C@H](c3ccc(Cl)cc3)CC2)C(=O)c2ccccc21 [atovaquone crystalline form B, trans-2-[4-(4-chlorophenyl)cyclohexyl]-3-hydroxy-1,4-naphthoquinone]",Specific Surface Area,[1],2.84 m^2/g and 3.12 m^2/g
"O=C1C(O)=C([C@H]2CC[C@H](c3ccc(Cl)cc3)CC2)C(=O)c2ccccc21 [atovaquone crystalline form A, trans-2-[4-(4-chlorophenyl)cyclohexyl]-3-hydroxy-1,4-naphthoquinone]",Specific Surface Area,[1],0.76 m^2/g
